Measurements reported in ChEMBL document CHEMBL3421592, “Synthesis and QSAR study of novel anti-inflammatory active mesalazine-metronidazole conjugates” (Bioorg Med Chem Lett, 2015).

What was measured:
[1] = system: Rattus norvegicus; assay: Antiinflammatory activity in Wistar rat assessed as inhibition of carrageenan-induced paw edema at 10 mg/kg indomethacin mol equivalent, ip administered 1 hr prior to carrageenan challenge measured at 1 hr relative to control; type: functional; conditions: route intraperitoneal
[2] = system: Rattus norvegicus; assay: Antiinflammatory activity in Wistar rat assessed as inhibition of carrageenan-induced paw edema at 10 mg/kg indomethacin mol equivalent, ip administered 1 hr prior to carrageenan challenge measured at 3 hrs relative to control; type: functional; conditions: route intraperitoneal
[3] = system: Rattus norvegicus; assay: Antiinflammatory activity in Wistar rat assessed as inhibition of carrageenan-induced paw edema at 10 mg/kg indomethacin mol equivalent, ip administered 1 hr prior to carrageenan challenge measured at 24 hrs relative to control; type: functional; conditions: route intraperitoneal
[4] = system: Rattus norvegicus; assay: Antiinflammatory activity in Wistar rat assessed as inhibition of carrageenan-induced paw edema at 10 mg/kg indomethacin mol equivalent, ip administered 1 hr prior to carrageenan challenge measured at 2 hrs relative to control; type: functional; conditions: route intraperitoneal
[5] = system: Rattus norvegicus; assay: Antiinflammatory activity in Wistar rat assessed as inhibition of carrageenan-induced paw edema at 10 mg/kg indomethacin mol equivalent, ip administered 1 hr prior to carrageenan challenge measured at 4 hrs relative to control; type: functional; conditions: route intraperitoneal
[6] = system: Mus musculus; assay: Toxicity in albino mouse assessed as appearance of toxic symptoms at 50 to 100 mg/kg indomethacin mol equivalent, ip measured after 24 hrs; type: organism-based; design: dose 50-100 mg/kg, route intraperitoneal; conditions: in vivo
[7] = system: Mus musculus; assay: Toxicity in albino mouse assessed as mortality at 50 to 100 mg/kg indomethacin mol equivalent, ip measured after 24 hrs; type: organism-based; design: dose 50-100 mg/kg, route intraperitoneal; conditions: in vivo
[8] = system: Rattus norvegicus; assay: Ulcerogenic activity in Wistar rat assessed as ulcer index at 10 mg/kg indomethacin mol equivalent, po administered 3 days relative to control; type: toxicity, organism-based; design: dose 10 mg/kg, route oral; conditions: in vivo, 72 h
[9] = system: Rattus norvegicus; assay: Antiinflammatory activity in Wistar rat assessed as inhibition of carrageenan-induced paw edema at 10 mg/kg, ip administered 1 hr prior to carrageenan challenge measured at 1 hr relative to control; type: functional; conditions: route intraperitoneal
[10] = system: Rattus norvegicus; assay: Antiinflammatory activity in Wistar rat assessed as inhibition of carrageenan-induced paw edema at 10 mg/kg, ip administered 1 hr prior to carrageenan challenge measured at 2 hrs relative to control; type: functional; conditions: route intraperitoneal
[11] = system: Rattus norvegicus; assay: Antiinflammatory activity in Wistar rat assessed as inhibition of carrageenan-induced paw edema at 10 mg/kg, ip administered 1 hr prior to carrageenan challenge measured at 3 hrs relative to control; type: functional; conditions: route intraperitoneal
[12] = system: Rattus norvegicus; assay: Ulcerogenic activity in Wistar rat assessed as ulcer index at 10 mg/kg, po administered 3 days relative to control; type: toxicity, organism-based; design: dose 10 mg/kg, route oral; conditions: in vivo, 72 h

| Compound | inhibition in vivo [1] | inhibition in vivo [2] | inhibition in vivo [3] | inhibition in vivo [4] | inhibition in vivo [5] | Activity [6] | Activity [7] | UI [8] | inhibition in vivo at 10 mg/kg [9] | inhibition in vivo at 10 mg/kg [10] | inhibition in vivo at 10 mg/kg [11] | UI [12] |
| --- | --- | --- | --- | --- | --- | --- | --- | --- | --- | --- | --- | --- |
| CC(=O)Nc1ccc(O)c(C(=O)O)c1 | 43.3% | 1.3% | 0% | 7.9% | 0% | – | – | – | – | – | – | – |
| Cc1ncc([N+](=O)[O-])n1CCOC(=O)c1cc(NC(=O)CNC(=O)OCc2ccccc2)ccc1O | 56.1% | 57% | 17.1% | 56.5% | 52.8% | – | – | – | – | – | – | – |
| Cc1ncc([N+](=O)[O-])n1CCOC(=O)c1cc(NC(=O)[C@H](C)NC(=O)OCc2ccccc2)ccc1O | 58.5% | 37.1% | 11.6% | 37.5% | 36.1% | – | – | – | – | – | – | – |
| Cc1ncc([N+](=O)[O-])n1CCOC(=O)c1cc(NC(=O)[C@H](Cc2ccccc2)NC(=O)OCc2ccccc2)ccc1O | 54.8% | 29% | 33.2% | 30.1% | 27.5% | – | – | – | – | – | – | – |
| Cc1ncc([N+](=O)[O-])n1CCOC(=O)c1cc(NC(=O)[C@@H](NC(=O)OCc2ccccc2)C(C)C)ccc1O | 74.4% | 61.5% | 51.7% | 64.5% | 58.2% | Non-toxic | Non-toxic | 0 | – | – | – | – |
| Cc1ncc([N+](=O)[O-])n1CCOC(=O)c1cc(NC(=O)[C@H](CCCCN)NC(=O)OCc2ccccc2)ccc1O | 44.3% | 36.9% | 23.4% | 37.8% | 33.5% | – | – | – | – | – | – | – |
| CC(=O)Nc1ccc(O)c(C(=O)OCCn2c([N+](=O)[O-])cnc2C)c1 | 63.4% | 16.6% | 0% | 24.5% | 15.5% | – | – | – | – | – | – | – |
| Cc1ncc([N+](=O)[O-])n1CCOC(=O)c1cc(NC(=O)C(C)NC(=O)OCc2ccccc2)ccc1O (racemic) | 57.9% | 44.8% | 0% | 47% | 41.1% | – | – | – | – | – | – | – |
| COc1ccc2c(c1)c(CC(=O)O)c(C)n2C(=O)c1ccc(Cl)cc1 [INDOMETHACIN] | – | – | – | – | – | – | – | – | 48.3% | 55.3% | 61.3% | 6 |
| Nc1ccc(O)c(C(=O)O)c1 [MESALAMINE] | 63.8% | 57.5% | 38.6% | 53.2% | 52.3% | – | – | – | – | – | – | – |
| Cc1ncc([N+](=O)[O-])n1CCO [METRONIDAZOLE] | 66.3% | 60.8% | 0% | 66.3% | 58.9% | Non-toxic | Non-toxic | 0 | – | – | – | – |
